For experiment [1], the target named is T1, human PRMT1 (Homo sapiens, UniProt Q99873).
T1 construct: GST-tagged PRMT1; made in house; host or cells: High Five insect cells (baculovirus, pFastBac1)
Kind of experiment: PRMT1 Biochemical Assay. The note with it: peptide substrate, 3H-SAM Flashplate assay. From the text:
S-adenosylmethionine (SAM), S-adenosylhomocysteine (SAH), bicine, Tween20, dimethylsulfoxide (DMSO), bovine skin gelatin (BSG), and Tris(2-carboxyethyl)phosphine hydrochloride solution (TCEP) were purchased from Sigma-Aldrich at the highest level of purity possible. ^3H-SAM was purchase from American Radiolabeled Chemicals with a specific activity of 80 Ci/mmol. 384-well streptavidin Flashplates were purchased from PerkinElmer.
Recombinant baculovirus were generated according to Bac-to-Bac kit instructions (Life Technologies). […] Infections were carried out at 27° C. for 48 hours, harvested by centrifugation, and stored at −80° C. for purification.
GST-tagged PRMT1 was eluted with 50 mM Tris, 2 mM glutathione, pH 7.8, dialysed in buffer A and concentrated to 1 mg/mL.
General Procedure for PRMT1 Enzyme Assays on Peptide Substrates.
(§1) The assays were all performed in a buffer consisting of 20 mM Bicine (pH=7.6), 1 mM TCEP, 0.005% BSG, and 0.002% Tween 20, prepared on the day of use. […] DMSO (1 ul) was added to Columns 11, 12, 23, 24, rows A-H for the maximum signal control and 1 ul of SAH, a known product and inhibitor of PRMT1, was added to columns 11, 12, 23, 24, rows I-P for the minimum signal control. A cocktail (40 ul) containing the PRMT1 enzyme was added by Multidrop Combi (Thermo-Fisher). The compounds were allowed to incubate with PRMT1 for 30 min at room temperature, then a cocktail (10 ul) containing SAM and peptide was added to initiate the reaction (final volume=51 ul). […] The assays were stopped by the addition of non-radiolabeled SAM (10 ul) to a final concentration of 300 uM, which dilutes the ^3H-SAM to a level where its incorporation into the peptide substrate is no longer detectable. 50 ul of the reaction in the 384-well polypropylene plate was then transferred to a 384-well Flashplate and the biotinylated peptides were allowed to bind to the streptavidin surface for at least 1 hour before being washed once with 0.1% Tween20 in a Biotek ELx405 plate washer. The plates were then read in a PerkinElmer TopCount plate reader to measure the quantity of ^3H-labeled peptide bound to the Flashplate surface, measured as disintegrations per minute (dpm) or alternatively, referred to as counts per minute (cpm).
(§2) Where dpm=disintegrations per minute, cmpd=signal in assay well, and min and max are the respective minimum and maximum signal controls.
(§3) Where top and bottom are the normally allowed to float, but may be fixed at 100 or 0 respectively in a 3-parameter fit. The Hill Coefficient normally allowed to float but may also be fixed at 1 in a 3-parameter fit. Y is the % inhibition and X is the compound concentration.

Experiment [2] concerns the target T2, human PRMT6 (Homo sapiens, UniProt Q96LA8).
T2 construct: Flag-PRMT6-His; made in house; host or cells: HEK 293F cells (BacMam baculovirus, pFastBacMam)
Kind of experiment: PRMT6 Biochemical Assay.
Excerpt: S-adenosylmethionine (SAM), S-adenosylhomocysteine (SAH), bicine, Tween20, dimethylsulfoxide (DMSO), bovine skin gelatin (BSG), sodium butyrate and Tris(2-carboxyethyl)phosphine hydrochloride solution (TCEP) were purchased from Sigma-Aldrich at the highest level of purity possible. ^3H-SAM was purchase from American Radiolabeled Chemicals with a specific activity of 80 Ci/mmol. 384-well streptavidin Flashplates were purchased from PerkinElmer.
Peptide representative of human histone H4 residues 36-50 was synthesized with an N-terminal linker-affinity tag motif and a C-terminal amide cap by 21st Century Biochemicals.
The amplified gene was subcloned into pFastBacMam (Viva Biotech).
Recombinant baculovirus were generated according to Bac-to-Bac kit instructions (Life Technologies). […] Infections were carried out at 37° C. for 48 hours, harvested by centrifugation, and stored at −80° C. for purification.
Column was washed with 20 mM imidazole in the same buffer and Flag-PRMT6-His was eluted with 150 mM imidazole. Pooled fractions were dialysed against buffer Ni-A and further purified by anti-flag M2 affinity chromatography. Flag-PRMT6-His was eluted with 200 ug/ml FLAG peptide in the same buffer. Pooled fractions were dialysed in 20 mM Tris, 150 mM NaCl, 10% glycerol and 5 mM β-mercaptoethanol, pH 7.8.
General Procedure for PRMT6 Enzyme Assays on Peptide Substrates.
as §1, with “PRMT6,” for “PRMT1,”, “PRMT6” for “PRMT1”, “400” for “300”
as §2, §3

For experiment [3], the target named is human PRMT8 (Homo sapiens, UniProt Q9NR22). Kind of experiment: PRMT8 Biochemical Assay. The note with it: peptide substrate, 3H-SAM Flashplate assay.
Excerpt: S-adenosylmethionine (SAM), S-adenosylhomocysteine (SAH), bicine, Tween20, dimethylsulfoxide (DMSO), bovine skin gelatin (BSG), isopropyl-3-D-thiogalactopyranoside (IPTG), and Tris(2-carboxyethyl)phosphine hydrochloride solution (TCEP) were purchased from Sigma-Aldrich at the highest level of purity possible. ^3H-SAM was purchase from American Radiolabeled Chemicals with a specific activity of 80 Ci/mmol. 384-well streptavidin Flashplates were purchased from PerkinElmer.
E. coli (BL21(DE3) Gold, Stratagene) made competent by the CaCl2 method were transformed with the PRMT8 construct and ampicillin selection. Protein over-expression was accomplished by growing the PRMT8 expressing E. coli clone and inducing expression with 0.3 mM IPTG at 16° C. The culture was grown for 12 hours, harvested by centrifugation, and stored at −80° C. for purification.
GST-tagged PRMT8 was eluted with 50 mM Tris, 2 mM glutathione, pH 7.8. Pooled fractions were cleaved by thrombin (10U) and dialysed in buffer A. GST was removed by reloading the cleaved protein sample onto glutathione sepharose column and PRMT8 was collected in the flow-through fractions. PRMT8 was purified further by ceramic hydroxyapatite chromatography. The column was washed with 50 mM phosphate buffer, 100 mM NaCl, 5% glycerol, 5 mM β-mercaptoethanol, pH 7.8 and PRMT8 was eluted by 100 mM phosphate in the same buffer. Protein was concentrated and buffer was exchanged to 50 mM Tris, 300 mM NaCl, 10% glycerol, 5 mM β-mercaptoethanol, pH 7.8 by ultrafiltration.
General Procedure for PRMT8 Enzyme Assays on Peptide Substrates.
The assays were all performed in a buffer consisting of 20 mM Bicine (pH=7.6), 1 mM TCEP, 0.005% BSG, and 0.002% Tween 20, prepared on the day of use. […] DMSO (1 ul) was added to Columns 11, 12, 23, 24, rows A-H for the maximum signal control and 1 ul of SAH, a known product and inhibitor of PRMT8, was added to columns 11, 12, 23, 24, rows I-P for the minimum signal control. A cocktail (40 ul) containing the PRMT8 enzyme was added by Multidrop Combi (Thermo-Fisher). The compounds were allowed to incubate with PRMT8 for 30 min at room temperature, then a cocktail (10 ul) containing ^3H-SAM and peptide was added to initiate the reaction (final volume=51 ul). […] The assays were stopped by the addition of non-radiolabeled SAM (10 ul) to a final concentration of 400 uM, which dilutes the ^3H-SAM to a level where its incorporation into the peptide substrate is no longer detectable. 50 ul of the reaction in the 384-well polypropylene plate was then transferred to a 384-well Flashplate and the biotinylated peptides were allowed to bind to the streptavidin surface for at least 1 hour before being washed once with 0.1% Tween20 in a Biotek ELx405 plate washer. The plates were then read in a PerkinElmer TopCount plate reader to measure the quantity of ^3H-labeled peptide bound to the Flashplate surface, measured as disintegrations per minute (dpm) or alternatively, referred to as counts per minute (cpm).
The subject of experiment [4] is mono-methyl arginine in RKO cells. Kind of experiment: RKO Methylation Assay, In Cell Western (ICW). The experiment is classed as cell-based. The note with it: 72 hours. From the text: RKO adherent cells were purchased from ATCC (American Type Culture Collection), Manassas, Va., USA. DMEM/Glutamax medium, penicillin-streptomycin, heat inactivated fetal bovine serum, 0.05% trypsin and D-PBS were purchased from Life Technologies, Grand Island, N.Y., USA. Odyssey blocking buffer, 800CW goat anti-rabbit IgG (H+L) antibody, and Licor Odyssey infrared scanner were purchased from Licor Biosciences, Lincoln, Nebr., USA. Mono-methyl arginine antibody was purchased from Cell Signaling Technology, Danvers, Mass., USA. Methanol was purchased from VWR, Franklin, Mass., USA. 10% Tween 20 was purchased from KPL, Inc., Gaithersburg, Md., USA. DRAQ5 was purchased from Biostatus Limited, Leicestershire, UK.
RKO adherent cells were maintained in growth medium (DMEM/Glutamax medium supplemented with 10% v/v heat inactivated fetal bovine serum and 100 units/mL penicillin-streptomycin) and cultured at 37° C. under 5% CO2.
Cell treatment, In Cell Western (ICW) for detection of mono-methyl arginine and DNA content.
Compound (100 nL) from a 96-well source plate was added directly to 384 well cell plate. Plates were incubated at 37° C., 5% CO2 for 72 hours. After three days of incubation, plates were brought to room temperature outside of the incubator for ten minutes and blotted on paper towels to remove cell media. 50 μL of ice cold 100% methanol was added directly to each well and incubated for 30 min at room temperature. After 30 min, plates were transferred to a Biotek EL406 plate washer and washed 2 times with 100 μL per well of wash buffer (1×PBS). Next 60 μL per well of Odyssey blocking buffer (Odyssey Buffer with 0.1% Tween 20 (v/v)) were added to each plate and incubated 1 hour at room temperature. Blocking buffer was removed and 20 μL per well of primary antibody was added (mono-methyl arginine diluted 1:200 in Odyssey buffer with 0.1% Tween 20 (v/v)) and plates were incubated overnight (16 hours) at 4° C. Plates were washed 5 times with 100 μL per well of wash buffer. […] The plates were washed 5 times with 100 μL per well wash buffer then 2 times with 100 μL per well of water. Plates were allowed to dry at room temperature then imaged on the Licor Odyssey machine which measures integrated intensity at 700 nm and 800 nm wavelengths. Both 700 and 800 channels were scanned.
First, the ratio for each well was determined by:
Each plate included fourteen control wells of DMSO only treatment (minimum activation) as well as fourteen control wells for maximum activation treated with 20 μM of a reference compound. The average of the ratio values for each control type was calculated and used to determine the percent activation for each test well in the plate. Reference compound was serially diluted three-fold in DMSO for a total of nine test concentrations, beginning at 20 μM. Percent activation was determined and EC30 curves were generated using triplicate wells per concentration of compound.

The mark [5] stands for this setting: peptide substrate, 3H-SAM Flashplate assay, read-out: PRMT6 IC50.

Read-outs that look alike come from different tables or passages of the source. Bounds are passed on as bounds.

T1 sequence (Q99873 with tags, fused parts or gaps): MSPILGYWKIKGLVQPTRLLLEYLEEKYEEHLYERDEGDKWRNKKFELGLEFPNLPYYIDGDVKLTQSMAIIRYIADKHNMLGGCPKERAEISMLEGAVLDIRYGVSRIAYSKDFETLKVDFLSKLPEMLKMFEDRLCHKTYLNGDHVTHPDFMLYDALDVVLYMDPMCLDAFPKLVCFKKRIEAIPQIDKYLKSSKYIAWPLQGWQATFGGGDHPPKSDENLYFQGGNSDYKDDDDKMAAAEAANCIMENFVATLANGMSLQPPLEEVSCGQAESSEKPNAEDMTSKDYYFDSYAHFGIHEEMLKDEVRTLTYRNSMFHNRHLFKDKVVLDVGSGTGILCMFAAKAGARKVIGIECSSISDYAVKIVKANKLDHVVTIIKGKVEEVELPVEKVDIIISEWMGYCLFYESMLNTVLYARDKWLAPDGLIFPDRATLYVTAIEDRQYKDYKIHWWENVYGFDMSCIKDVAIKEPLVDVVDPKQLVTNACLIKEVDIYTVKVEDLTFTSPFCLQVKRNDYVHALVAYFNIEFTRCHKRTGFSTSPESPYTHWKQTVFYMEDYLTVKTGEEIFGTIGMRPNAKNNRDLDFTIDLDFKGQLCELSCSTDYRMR
T2 sequence (Q96LA8 with tags, fused parts or gaps): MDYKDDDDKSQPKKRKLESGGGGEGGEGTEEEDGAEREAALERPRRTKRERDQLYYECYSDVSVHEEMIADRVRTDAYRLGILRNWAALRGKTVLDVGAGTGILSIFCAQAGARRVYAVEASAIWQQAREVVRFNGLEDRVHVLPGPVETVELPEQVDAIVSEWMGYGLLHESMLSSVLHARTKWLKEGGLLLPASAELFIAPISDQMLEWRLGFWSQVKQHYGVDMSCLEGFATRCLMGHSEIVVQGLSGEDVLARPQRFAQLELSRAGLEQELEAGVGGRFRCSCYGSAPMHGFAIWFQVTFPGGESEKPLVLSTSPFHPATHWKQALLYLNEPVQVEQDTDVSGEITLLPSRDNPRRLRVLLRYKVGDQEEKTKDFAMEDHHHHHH
Chain of human PRMT8 (Q9NR22 whole entry): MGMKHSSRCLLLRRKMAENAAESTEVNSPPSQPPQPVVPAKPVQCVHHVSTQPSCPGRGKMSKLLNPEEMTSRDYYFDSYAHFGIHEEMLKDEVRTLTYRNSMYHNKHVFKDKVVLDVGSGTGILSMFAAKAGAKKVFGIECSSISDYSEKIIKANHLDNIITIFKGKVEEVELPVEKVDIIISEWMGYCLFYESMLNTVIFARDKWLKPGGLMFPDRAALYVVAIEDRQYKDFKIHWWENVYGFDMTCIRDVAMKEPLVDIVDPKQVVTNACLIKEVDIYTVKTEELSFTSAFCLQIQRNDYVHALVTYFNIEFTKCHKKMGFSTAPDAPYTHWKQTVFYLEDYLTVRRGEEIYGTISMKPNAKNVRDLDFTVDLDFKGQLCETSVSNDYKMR

As for `CNCCN(C)Cc1c[nH]nc1-c1cc(OCCCC(C)C)cc(C(F)(F)F)c1` [Compound 13], the figures for the IC50 in experiment [1] (read-out: PRMT1 IC50), in experiment [2] (setting [5]) and in experiment [3] (PRMT8 IC50 (uM)) were 0.00531 µM, 0.285 µM and 0.0261 µM, respectively.
In the case of `CNCCN(C)Cc1c[nH]nc1-c1ccc(CC(C)C)c(C(F)(F)F)c1` [Compound 50], the IC50 – broadly, the concentration that inhibits the measured activity by half – in experiment [1] (PRMT1 IC50 (uM)) stood at 0.0105 µM; in experiment [2] (setting [5]), 0.0677 µM; in experiment [3] (PRMT8 IC50 (uM)), 0.0245 µM.
Regarding `CNCCN(C)Cc1c[nH]nc1-c1ccc(NC(C)c2cccnc2)nc1` (stereo not shown) [Compound 52], the IC50 in experiment [1] (read-out: PRMT1 IC50) turned out to be 0.0107 µM; in experiment [2] (setting [5]), 0.0206 µM; in experiment [3] (PRMT8 IC50 (uM)), 0.026 µM.
For `CNCCN(C)Cc1c[nH]nc1-c1ccc(OCCOc2ccc(OCCC3CCOCC3)cc2)cc1` [Compound 55] the same measures were 0.0113 µM, 0.0186 µM and 0.023 µM.
Regarding `CNCCN(C)Cc1c[nH]nc1-c1ccc(NC(C)c2ccncc2)nc1` (stereo not shown) [Compound 67], the IC50 in experiment [1] (read-out: PRMT1 IC50) was 0.0147 µM; in experiment [2] (setting [5]) it was 0.031 µM; in experiment [3] (PRMT8 IC50 (uM)), 0.062 µM.
As for `CNCCN(C)Cc1c[nH]nc1-c1cc(OC(CO)CC(C)C)cc(C(F)(F)F)c1` (stereo not shown) [Compound 73], the IC50 in experiment [2] (read-out: PRMT6 IC50) is 1.9 µM; in experiment [3] (read-out: PRMT8 IC50), 0.0438 µM. Moreover, in experiment [4], the “ICW EC30” value stood at 2.102 µM.
Take `CNCCN(C)Cc1c[nH]nc1-c1cc(OC2CCCC2)cc(C(F)(F)F)c1` [Compound 76]: the IC50 was 0.0163 µM in experiment [1] (read-out: PRMT1 IC50), 0.254 µM in experiment [2] (setting [5]) and 0.0871 µM in experiment [3] (PRMT8 IC50 (uM)).
As to `CNCCN(C)Cc1c[nH]nc1-c1ccc(OC2CC(OCCC3CCCCC3)C2)cc1` (stereo not shown) [Compound 100], the results for the IC50 in experiment [1] (read-out: PRMT1 IC50), in experiment [2] (setting [5]) and in experiment [3] (PRMT8 IC50 (uM)) were 0.03 µM, 0.00465 µM and 0.0599 µM, respectively.
As to `CNCCN(C)Cc1c[nH]nc1-c1cc(F)c(OC(CO)CO)c(C(F)(F)F)c1` [Compound 107], the IC50 in experiment [1] (read-out: PRMT1 IC50) came out at 0.0355 µM; in experiment [2] (setting [5]) it was 0.066 µM; in experiment [3] (PRMT8 IC50 (uM)), 0.085 µM.
For the molecule `CNCCN(C)Cc1ccnn1[C@H]1CC[C@@H](COC)CC1` [Compound 110], the IC50 in experiment [1] (read-out: PRMT1 IC50) amounted to 0.0364 µM; in experiment [2] (setting [5]) it was 0.143 µM. Besides, in experiment [4], the “ICW EC30” value amounted to 1.204 µM.
Take `CNCCN(C)Cc1c[nH]nc1-c1ccc(OCCOc2ccnnc2)cc1` [Compound 112]: the IC50 in experiment [1] (read-out: PRMT1 IC50) was 0.0373 µM; in experiment [2] (setting [5]), 0.0278 µM. Moreover, in experiment [4], the “ICW EC30” value came out at 3.994 µM.
In the case of `CCN(Cc1ccncc1)c1ccc(-c2n[nH]cc2CN(C)CCNC)cn1` [Compound 113], the IC50 was determined as 0.0374 µM in experiment [1] (read-out: PRMT1 IC50), 0.105 µM in experiment [2] (setting [5]) and 0.243 µM in experiment [3] (PRMT8 IC50 (uM)).
On the same counts, the results for `COCCCOc1cc(-c2n[nH]cc2CN(C)CCN)cc(C(F)(F)F)c1Cl` [Compound 115] are 0.0391 µM, 1.82 µM and 0.563 µM.
Regarding `CNCCN(C)Cc1c[nH]nc1-c1ccc(N(C)CC2CCOCC2)nc1` [Compound 120], the IC50 stood at 0.0417 µM in experiment [1] (read-out: PRMT1 IC50) and 0.272 µM in experiment [2] (setting [5]). Also, the “ICW EC30” value in experiment [4] was 4.389 µM.
On the same counts, the results for `CNCCN(C)Cc1c[nH]nc1-c1ccc(OC2CC(OCC(C)C)C2)cc1` (stereo not shown) [Compound 131] are 0.0492 µM, 0.0182 µM and 14.756 µM.
Take `CNCCN(C)Cc1cn[nH]c1-c1ccc(OC2CC(OCCC3CCOCC3)C2)cc1` (stereo not shown) [Compound 145]: the IC50 in experiment [1] (read-out: PRMT1 IC50) worked out at 0.119 µM; in experiment [2] (PRMT6 IC50 (uM), peptide substrate, 3H-SAM Flashplate assay) it was 0.0101 µM; in experiment [3] (PRMT8 IC50 (uM)) it was 0.223 µM.
As to `CNCCN(C)Cc1c[nH]nc1-c1ccc(OC2CC(OCCC3CCCCC3)C2)cc1` (stereo not shown) [Compound 150], in experiment [4], the “ICW EC30” value is above 20 µM.
In the case of `CNCCN(C)Cc1c[nH]nc1-c1ccc(O[C@H]2C[C@H](OCCC3CCOCC3)C2)cc1` [Compound 155, N1,N2-dimethyl-N1-((3-(4-(3-(2-(tetrahydro-2H-pyran-4-yl)ethoxy)cyclobutoxy)phenyl)-1H-pyrazol-4-yl)methyl)ethane-1,2-diamine bis(2,2,2-trifluoroacetate)], the IC50 was 0.119 µM in experiment [1] (read-out: PRMT1 IC50), 0.0101 µM in experiment [2] (setting [5]) and 0.223 µM in experiment [3] (read-out: PRMT8 IC50).
